Results from patent US5082843A, “Pyrazinyl and pyridazinyl ethers” (John Wyeth and Brother Limited, priority 1987, dated 1992).

Legend:
5-HT3 receptors [1] = molecular target: T1, 5-HT3 receptors (Oryctolagus cuniculus, UniProt A0A5F9C9J3); assay: 5-HT3 antagonistic activity in the isolated right atrium of the rabbit heart; conditions: antagonism of 5-HT evoked increase in spontaneous rate of beating, read-out: apparent pKB (converted)
T1 construct: 5-HT3 receptors present on sympathetic nerve terminals in the heart; from tissue; host or cells: isolated right atrium of the rabbit heart (sympathetic nerve terminals)
T1 sequence (A0A5F9C9J3 1-494): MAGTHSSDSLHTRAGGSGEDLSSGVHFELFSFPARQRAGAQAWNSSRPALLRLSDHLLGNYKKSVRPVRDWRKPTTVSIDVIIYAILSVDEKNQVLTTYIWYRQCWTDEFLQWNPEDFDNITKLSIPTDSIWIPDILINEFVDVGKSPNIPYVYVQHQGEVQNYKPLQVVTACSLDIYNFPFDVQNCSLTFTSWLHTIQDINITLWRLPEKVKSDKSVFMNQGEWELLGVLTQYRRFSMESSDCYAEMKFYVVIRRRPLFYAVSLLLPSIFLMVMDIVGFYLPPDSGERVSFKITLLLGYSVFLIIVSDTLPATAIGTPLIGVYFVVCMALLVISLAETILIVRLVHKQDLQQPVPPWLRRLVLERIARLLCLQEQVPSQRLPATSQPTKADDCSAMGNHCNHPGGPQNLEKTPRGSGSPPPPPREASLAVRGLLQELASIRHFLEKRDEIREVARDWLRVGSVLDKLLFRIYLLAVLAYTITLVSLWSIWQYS
Protocol: The compounds of the invention are also tested for 5-HT3 antagonistic activity in the isolated right atrium of the rabbit heart based upon the method of Fozard J. R., Naunyn-Schmiedeberg's Arch. Pharmacol., 1984, 326, 36-44. This procedure relies upon the ability of 5-HT to stimulate 5-HT3 receptors present on sympathetic nerve terminals in the heart, causing release of noradrenaline which evokes an increase in the spontaneous rate of beating. The antagonist potency is expressed in a similar manner to that of the preceding test method i.e. as an apparent pKB.

5-HT3 receptors [2] = molecular target: T2, 5-HT3 receptors (Rattus norvegicus, UniProt P35563); assay: 5-HT3 receptor antagonism in the isolated vagus nerve of the rat (5-HT induced depolarization); conditions: isolated rat cervical vagus nerve; antagonism of 5-HT induced depolarization; from 5-HT concentration ratios; read-out: apparent pKB (converted)
T2 construct: isolated vagus nerve of the rat; from tissue; host or cells: isolated (cervical) vagus nerve of the rat
T2 sequence (P35563 24-483): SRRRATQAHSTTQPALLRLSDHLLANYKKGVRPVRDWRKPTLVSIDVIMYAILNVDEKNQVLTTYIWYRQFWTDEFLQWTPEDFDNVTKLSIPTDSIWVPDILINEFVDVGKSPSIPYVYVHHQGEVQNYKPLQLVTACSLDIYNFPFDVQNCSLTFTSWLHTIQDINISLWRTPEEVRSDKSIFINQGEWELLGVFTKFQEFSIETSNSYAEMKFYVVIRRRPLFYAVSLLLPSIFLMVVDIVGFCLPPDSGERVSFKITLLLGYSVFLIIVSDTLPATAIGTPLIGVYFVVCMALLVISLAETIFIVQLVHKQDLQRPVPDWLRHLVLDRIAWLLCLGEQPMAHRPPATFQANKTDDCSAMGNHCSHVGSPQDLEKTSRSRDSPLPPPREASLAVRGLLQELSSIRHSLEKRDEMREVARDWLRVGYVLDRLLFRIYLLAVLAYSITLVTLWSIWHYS
Protocol: The compound of the invention are tested for 5-HT3 receptor antagonism in the isolated vagus nerve of the rat by a method based upon that of Ireland S. J. and Tyers M. B., Brit. J. Pharmacol., 1987, 90, 229-238. The procedure relies upon the ability of 5-HT to induce depolarization of neurones in the cervical vagus nerve by a direct action on 5-HT3 receptors. A concentration-response curve to 5-HT induced depolarization is obtained and the antagonists are added to the bath containing the isolated nerve before repeating the 5-HT concentration-response curve. Antagonist potency is estimated for the 5-HT concentration ratios and expressed as an apparent pKB value (where KB is the antagonist dissociation constant).

## CN1[C@@H]2CC[C@H]1C[C@@H](Oc1ccc3ccccc3n1)C2 [Example 2, Endo-8-methyl-3-(2-quinolyloxy)-8-aza-bicyclo[3.2.1]octane]
5-HT3 receptors [1]
  Kb: 2.51 nM
5-HT3 receptors [2]
  Kb: 31.6 nM
